Measured values from PubChem BioAssay (NCI).
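Growth conditions: 96-well plates. Treatment: test compound, 48 hours, 5 concentrations. Analysis: linear interpolation between bracketing concentrations; unreached endpoints set to highest concentration. TGI is the concentration that stops growth completely.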

How the values were obtained:
Assay in all cases: NCI-60 cell line screen, 48 h
RXF 393 renal = tested on: RXF 393 renal
MCF7 breast = tested on: MCF7 breast
OVCAR-8 ovarian = tested on: OVCAR-8 ovarian
NCI-H226 lung = tested on: NCI-H226 lung
COLO 205 colon = tested on: COLO 205 colon
MDA-N = tested on: MDA-N
SNB-19 CNS = tested on: SNB-19 CNS
SK-MEL-28 melanoma = tested on: SK-MEL-28 melanoma
LOX IMVI melanoma = tested on: LOX IMVI melanoma
HT29 colon = tested on: HT29 colon
UACC-62 melanoma = tested on: UACC-62 melanoma
786-0 renal = tested on: 786-0 renal
SF-268 CNS = tested on: SF-268 CNS
SF-539 CNS = tested on: SF-539 CNS
ACHN renal = tested on: ACHN renal
IGROV1 ovarian = tested on: IGROV1 ovarian
HCT-116 colon = tested on: HCT-116 colon
SR leukemia = tested on: SR leukemia
KM12 colon = tested on: KM12 colon
CAKI-1 renal = tested on: CAKI-1 renal
A549 NSCLC = tested on: A549 NSCLC
OVCAR-3 ovarian = tested on: OVCAR-3 ovarian
SF-295 CNS = tested on: SF-295 CNS
MOLT-4 leukemia = tested on: MOLT-4 leukemia
TK-10 renal = tested on: TK-10 renal
SN12C renal = tested on: SN12C renal
PC-3 prostate = tested on: PC-3 prostate
SW-620 colon = tested on: SW-620 colon
HCT-15 colon = tested on: HCT-15 colon
T-47D breast = tested on: T-47D breast
OVCAR-5 ovarian = tested on: OVCAR-5 ovarian
UACC-257 melanoma = tested on: UACC-257 melanoma
SK-OV-3 ovarian = tested on: SK-OV-3 ovarian
NCI-H522 lung = tested on: NCI-H522 lung
HCC-2998 colon = tested on: HCC-2998 colon
SK-MEL-5 melanoma = tested on: SK-MEL-5 melanoma
RPMI-8226 leukemia = tested on: RPMI-8226 leukemia
M14 melanoma = tested on: M14 melanoma
U251 CNS = tested on: U251 CNS
EKVX NSCLC = tested on: EKVX NSCLC
UO-31 renal = tested on: UO-31 renal
NCI-H23 lung = tested on: NCI-H23 lung
MALME-3M melanoma = tested on: MALME-3M melanoma
HOP-62 NSCLC = tested on: HOP-62 NSCLC
SNB-75 CNS = tested on: SNB-75 CNS
DU-145 prostate = tested on: DU-145 prostate
NCI/ADR-RES ovarian = tested on: NCI/ADR-RES ovarian
MDA-MB-231 breast = tested on: MDA-MB-231 breast
SK-MEL-2 melanoma = tested on: SK-MEL-2 melanoma
HL-60(TB) leukemia = tested on: HL-60(TB) leukemia
OVCAR-4 ovarian = tested on: OVCAR-4 ovarian
MDA-MB-435 = tested on: MDA-MB-435
NCI-H460 lung = tested on: NCI-H460 lung
K-562 leukemia = tested on: K-562 leukemia
A498 renal = tested on: A498 renal
HOP-92 NSCLC = tested on: HOP-92 NSCLC
BT-549 breast = tested on: BT-549 breast
CCRF-CEM leukemia = tested on: CCRF-CEM leukemia
HS 578T breast = tested on: HS 578T breast

Q: `CC#CC(O)(C(=O)OC1CCC2CCC1N2C)C1CCCC1` (stereo unspecified) was tested. Which TGI (RXF 393 renal) did it give?
A: > 100 µM

Q: What about the TGI (MCF7 breast) of the same compound?
A: > 100 µM

Q: And the TGI (OVCAR-8 ovarian)?
A: > 100 µM

Q: And the TGI (NCI-H226 lung)?
A: > 100 µM

Q: And the TGI (COLO 205 colon)?
A: > 100 µM

Q: And the TGI (MDA-N)?
A: > 100 µM

Q: What about the TGI (SNB-19 CNS) of the same compound?
A: > 100 µM

Q: What about the TGI (SK-MEL-28 melanoma) of the same compound?
A: > 100 µM

Q: What about the TGI (LOX IMVI melanoma) of the same compound?
A: > 100 µM

Q: What about the TGI (HT29 colon) of the same compound?
A: > 100 µM

Q: What about the TGI (UACC-62 melanoma) of the same compound?
A: > 100 µM

Q: What about the TGI (786-0 renal) of the same compound?
A: > 100 µM

Q: And the TGI (SF-268 CNS)?
A: > 100 µM

Q: What about the TGI (SF-539 CNS) of the same compound?
A: > 100 µM

Q: And the TGI (ACHN renal)?
A: > 10 µM

Q: And the TGI (IGROV1 ovarian)?
A: > 100 µM

Q: What about the TGI (HCT-116 colon) of the same compound?
A: > 100 µM

Q: What about the TGI (SR leukemia) of the same compound?
A: > 100 µM

Q: And the TGI (KM12 colon)?
A: > 100 µM

Q: And the TGI (CAKI-1 renal)?
A: > 100 µM

Q: And the TGI (A549 NSCLC)?
A: > 100 µM

Q: What about the TGI (OVCAR-3 ovarian) of the same compound?
A: > 100 µM

Q: And the TGI (SF-295 CNS)?
A: > 100 µM

Q: And the TGI (MOLT-4 leukemia)?
A: > 100 µM

Q: And the TGI (TK-10 renal)?
A: > 100 µM

Q: What about the TGI (SN12C renal) of the same compound?
A: > 100 µM

Q: What about the TGI (PC-3 prostate) of the same compound?
A: > 100 µM

Q: What about the TGI (SW-620 colon) of the same compound?
A: > 100 µM

Q: What about the TGI (HCT-15 colon) of the same compound?
A: > 100 µM

Q: What about the TGI (T-47D breast) of the same compound?
A: > 100 µM

Q: And the TGI (OVCAR-5 ovarian)?
A: > 10 µM

Q: What about the TGI (UACC-257 melanoma) of the same compound?
A: > 100 µM

Q: What about the TGI (SK-OV-3 ovarian) of the same compound?
A: > 100 µM

Q: And the TGI (NCI-H522 lung)?
A: > 100 µM

Q: What about the TGI (HCC-2998 colon) of the same compound?
A: > 100 µM

Q: And the TGI (SK-MEL-5 melanoma)?
A: > 100 µM

Q: And the TGI (RPMI-8226 leukemia)?
A: > 100 µM

Q: And the TGI (M14 melanoma)?
A: > 100 µM

Q: What about the TGI (U251 CNS) of the same compound?
A: > 10 µM

Q: And the TGI (EKVX NSCLC)?
A: > 100 µM

Q: What about the TGI (UO-31 renal) of the same compound?
A: > 100 µM

Q: And the TGI (NCI-H23 lung)?
A: > 100 µM

Q: What about the TGI (MALME-3M melanoma) of the same compound?
A: > 100 µM

Q: What about the TGI (HOP-62 NSCLC) of the same compound?
A: > 100 µM

Q: And the TGI (SNB-75 CNS)?
A: > 100 µM

Q: And the TGI (DU-145 prostate)?
A: > 100 µM

Q: What about the TGI (NCI/ADR-RES ovarian) of the same compound?
A: > 10 µM

Q: And the TGI (MDA-MB-231 breast)?
A: > 100 µM

Q: How did the TGI (RXF 393 renal) turn out when `Cc1cc(Cl)nc(Nc2nc3ccccc3[nH]2)n1` was run?
A: > 100 µM

Q: What about the TGI (MCF7 breast) of the same compound?
A: > 100 µM

Q: What about the TGI (OVCAR-8 ovarian) of the same compound?
A: > 100 µM

Q: And the TGI (NCI-H226 lung)?
A: > 100 µM

Q: What about the TGI (COLO 205 colon) of the same compound?
A: > 100 µM

Q: And the TGI (MDA-N)?
A: > 100 µM

Q: And the TGI (SNB-19 CNS)?
A: > 100 µM

Q: And the TGI (SK-MEL-28 melanoma)?
A: > 100 µM

Q: What about the TGI (LOX IMVI melanoma) of the same compound?
A: > 100 µM

Q: And the TGI (HT29 colon)?
A: > 100 µM

Q: What about the TGI (UACC-62 melanoma) of the same compound?
A: > 100 µM

Q: What about the TGI (786-0 renal) of the same compound?
A: > 100 µM

Q: What about the TGI (SF-268 CNS) of the same compound?
A: > 100 µM

Q: What about the TGI (SF-539 CNS) of the same compound?
A: > 100 µM

Q: What about the TGI (ACHN renal) of the same compound?
A: > 100 µM

Q: What about the TGI (IGROV1 ovarian) of the same compound?
A: > 100 µM

Q: What about the TGI (HCT-116 colon) of the same compound?
A: > 100 µM

Q: And the TGI (SK-MEL-2 melanoma)?
A: > 100 µM

Q: What about the TGI (HL-60(TB) leukemia) of the same compound?
A: > 100 µM

Q: And the TGI (SR leukemia)?
A: > 100 µM

Q: What about the TGI (OVCAR-4 ovarian) of the same compound?
A: > 100 µM

Q: What about the TGI (A549 NSCLC) of the same compound?
A: > 100 µM

Q: And the TGI (OVCAR-3 ovarian)?
A: > 100 µM

Q: And the TGI (MDA-MB-435)?
A: > 100 µM

Q: And the TGI (SF-295 CNS)?
A: > 100 µM

Q: What about the TGI (TK-10 renal) of the same compound?
A: > 100 µM

Q: What about the TGI (NCI-H460 lung) of the same compound?
A: > 100 µM

Q: What about the TGI (K-562 leukemia) of the same compound?
A: > 100 µM

Q: And the TGI (SN12C renal)?
A: > 100 µM

Q: What about the TGI (PC-3 prostate) of the same compound?
A: > 100 µM

Q: And the TGI (SW-620 colon)?
A: > 100 µM

Q: And the TGI (HCT-15 colon)?
A: > 100 µM

Q: What about the TGI (OVCAR-5 ovarian) of the same compound?
A: > 100 µM

Q: And the TGI (UACC-257 melanoma)?
A: > 100 µM

Q: And the TGI (SK-OV-3 ovarian)?
A: > 100 µM

Q: And the TGI (NCI-H522 lung)?
A: 5.96 µM

Q: What about the TGI (HCC-2998 colon) of the same compound?
A: > 100 µM

Q: What about the TGI (SK-MEL-5 melanoma) of the same compound?
A: > 100 µM

Q: What about the TGI (M14 melanoma) of the same compound?
A: > 100 µM

Q: What about the TGI (A498 renal) of the same compound?
A: > 100 µM

Q: What about the TGI (U251 CNS) of the same compound?
A: > 100 µM

Q: What about the TGI (HOP-92 NSCLC) of the same compound?
A: > 100 µM

Q: And the TGI (BT-549 breast)?
A: > 100 µM

Q: And the TGI (CCRF-CEM leukemia)?
A: > 100 µM

Q: And the TGI (UO-31 renal)?
A: > 100 µM

Q: What about the TGI (NCI-H23 lung) of the same compound?
A: > 100 µM

Q: What about the TGI (MALME-3M melanoma) of the same compound?
A: > 100 µM

Q: And the TGI (HS 578T breast)?
A: > 100 µM

Q: And the TGI (HOP-62 NSCLC)?
A: > 100 µM

Q: What about the TGI (SNB-75 CNS) of the same compound?
A: > 100 µM

Q: And the TGI (DU-145 prostate)?
A: > 100 µM

Q: And the TGI (NCI/ADR-RES ovarian)?
A: > 100 µM

Q: And the TGI (MDA-MB-231 breast)?
A: > 100 µM
